Key:
FLT3 = biological target: T1, FLT3 (Homo sapiens, UniProt P36888); experiment: FLT3 LanthaScreen assay; format: biochemical; settings: Table 4
T1 sequence (P36888 27-993): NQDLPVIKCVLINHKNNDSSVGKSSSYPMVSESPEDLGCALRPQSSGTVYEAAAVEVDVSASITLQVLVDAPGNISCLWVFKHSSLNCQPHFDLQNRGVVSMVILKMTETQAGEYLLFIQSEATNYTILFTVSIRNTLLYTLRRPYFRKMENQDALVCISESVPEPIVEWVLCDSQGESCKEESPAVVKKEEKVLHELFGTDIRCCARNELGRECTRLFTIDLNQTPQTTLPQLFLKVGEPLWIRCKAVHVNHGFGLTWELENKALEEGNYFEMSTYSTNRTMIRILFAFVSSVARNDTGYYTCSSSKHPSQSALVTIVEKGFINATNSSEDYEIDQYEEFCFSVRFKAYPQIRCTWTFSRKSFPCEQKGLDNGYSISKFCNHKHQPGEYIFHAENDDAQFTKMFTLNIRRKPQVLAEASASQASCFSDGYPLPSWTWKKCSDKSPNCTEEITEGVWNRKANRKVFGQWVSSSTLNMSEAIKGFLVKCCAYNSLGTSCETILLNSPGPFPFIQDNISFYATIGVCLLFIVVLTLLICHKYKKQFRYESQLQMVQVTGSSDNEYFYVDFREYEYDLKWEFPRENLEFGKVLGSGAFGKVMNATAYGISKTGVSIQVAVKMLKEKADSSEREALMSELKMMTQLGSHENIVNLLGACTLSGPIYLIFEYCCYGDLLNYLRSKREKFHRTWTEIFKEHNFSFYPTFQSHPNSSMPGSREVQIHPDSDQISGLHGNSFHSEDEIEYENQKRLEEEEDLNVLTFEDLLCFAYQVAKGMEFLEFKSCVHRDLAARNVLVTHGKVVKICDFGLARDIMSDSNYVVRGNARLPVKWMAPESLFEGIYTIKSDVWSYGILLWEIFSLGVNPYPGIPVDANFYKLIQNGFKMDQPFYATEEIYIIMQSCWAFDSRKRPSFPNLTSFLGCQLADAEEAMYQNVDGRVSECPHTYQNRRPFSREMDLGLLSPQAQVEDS
Method: (§1) FLT3/FLT3-ITD LanthaScreen Assays
(§2) Assays were performed in a 10 μl-volume in 384-well polypropylene microplates (Perkin Elmer Proxiplate, cat. No. 6059480) at ambient temperature. Optimized 1× assay buffer was 50 mM Hepes pH 7.5, 2 mM DTT, 0.01% Tween, 0.01% BSA, 10 mM MgCl2. For compound screening FLT3 (final concentration, f.c.=[…]) or FLT3-ITD (f.c.=[…]) was added using a Multidrop Combi (ThermoFisher Scientific, Waltham, MA) and preincubated for 10 min. Reactions were started by adding fluorescein-poly GT (f.c.=200 nM) and ATP (f.c.=57 μM) substrates. Reactions proceeded for 40 minutes. The reactions were stopped with a detection mixture of EDTA (f.c.=20 mM) and terbium-conjugated anti-phoso tyrosine antibody pY20 (f.c.=2 nM). The plates were sealed and read on an Envision (PerkinElmer, Waltham, MA) using 340 nm excitation and emission reads at 495 and 520 nM.

METTL3/METTL14 = METTL3/METTL14 (Homo sapiens, UniProt Q86U44); experiment: METTL3-14 standard enzyme assay (3H-SAM flashplate); settings: Table 4; METTL3 biochemical assay
Summary of the method: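 Radiometric methyltransferase read-out: after quenching with excess unlabelled SAM (15 μM), biotinylated RNA was captured on streptavidin flashplates (2 h, 25° C) and counted. Reactions contained 2.5 nM enzyme (5 min preincubation), 100 nM RNA and 100 nM 3H-SAM, ran 30 min in HEPES pH 7.5 buffer with KCl, MgCl2, DTT.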

FLT3-ITD = biological target: T2, FLT3-ITD (Homo sapiens, UniProt P36888); experiment: FLT3-ITD LanthaScreen assay; format: biochemical; settings: Table 4
T2 sequence (P36888 1-993): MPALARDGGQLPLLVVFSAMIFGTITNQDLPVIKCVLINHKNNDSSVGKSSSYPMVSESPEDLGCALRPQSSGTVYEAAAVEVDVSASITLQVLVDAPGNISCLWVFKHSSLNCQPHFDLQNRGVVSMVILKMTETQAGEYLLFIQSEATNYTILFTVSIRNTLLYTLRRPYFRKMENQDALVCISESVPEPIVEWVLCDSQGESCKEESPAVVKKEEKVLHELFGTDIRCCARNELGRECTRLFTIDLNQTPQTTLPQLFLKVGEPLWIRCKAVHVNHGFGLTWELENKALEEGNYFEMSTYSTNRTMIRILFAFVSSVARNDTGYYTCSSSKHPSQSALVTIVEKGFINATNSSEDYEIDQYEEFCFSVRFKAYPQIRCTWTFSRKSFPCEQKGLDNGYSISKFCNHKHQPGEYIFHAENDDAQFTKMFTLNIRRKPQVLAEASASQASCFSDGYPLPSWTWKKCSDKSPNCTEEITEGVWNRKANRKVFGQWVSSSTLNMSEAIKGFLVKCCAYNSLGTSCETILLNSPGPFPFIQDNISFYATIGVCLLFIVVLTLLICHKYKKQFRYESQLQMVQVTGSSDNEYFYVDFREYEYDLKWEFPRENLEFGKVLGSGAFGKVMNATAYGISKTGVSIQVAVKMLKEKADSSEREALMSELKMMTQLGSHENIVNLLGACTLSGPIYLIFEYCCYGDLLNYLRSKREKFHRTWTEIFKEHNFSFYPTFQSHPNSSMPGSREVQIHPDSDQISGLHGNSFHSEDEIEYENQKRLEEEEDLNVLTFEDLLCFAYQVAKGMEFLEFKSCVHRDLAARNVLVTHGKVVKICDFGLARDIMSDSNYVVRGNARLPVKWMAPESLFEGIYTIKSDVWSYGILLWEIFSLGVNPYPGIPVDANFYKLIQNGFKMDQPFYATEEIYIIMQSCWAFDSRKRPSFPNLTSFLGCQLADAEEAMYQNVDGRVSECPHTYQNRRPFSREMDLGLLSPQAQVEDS
Method: as §1, §2

PRMT5-MEP50 = PRMT5-MEP50 (Homo sapiens, UniProt O14744); experiment: PRMT5 assay (3H-SAM flashplate); settings: Table 4; PRMT5 biochemical assay
Summary of the method: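 Radiometric methyl-transfer read-out: 3H-methyl transferred to a 3′-biotinylated, acetylated H4 peptide substrate (100 nM) from 3H-SAM (250 nM), captured on streptavidin scintillation plates. Enzyme complex 2.5 nM, pH 8.0 Tris buffer with DTT and Tween, compound preincubation 5 min, 60 min reaction stopped with excess unlabeled SAM.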

PRMT5-MEP50, sequence (O14744 whole entry): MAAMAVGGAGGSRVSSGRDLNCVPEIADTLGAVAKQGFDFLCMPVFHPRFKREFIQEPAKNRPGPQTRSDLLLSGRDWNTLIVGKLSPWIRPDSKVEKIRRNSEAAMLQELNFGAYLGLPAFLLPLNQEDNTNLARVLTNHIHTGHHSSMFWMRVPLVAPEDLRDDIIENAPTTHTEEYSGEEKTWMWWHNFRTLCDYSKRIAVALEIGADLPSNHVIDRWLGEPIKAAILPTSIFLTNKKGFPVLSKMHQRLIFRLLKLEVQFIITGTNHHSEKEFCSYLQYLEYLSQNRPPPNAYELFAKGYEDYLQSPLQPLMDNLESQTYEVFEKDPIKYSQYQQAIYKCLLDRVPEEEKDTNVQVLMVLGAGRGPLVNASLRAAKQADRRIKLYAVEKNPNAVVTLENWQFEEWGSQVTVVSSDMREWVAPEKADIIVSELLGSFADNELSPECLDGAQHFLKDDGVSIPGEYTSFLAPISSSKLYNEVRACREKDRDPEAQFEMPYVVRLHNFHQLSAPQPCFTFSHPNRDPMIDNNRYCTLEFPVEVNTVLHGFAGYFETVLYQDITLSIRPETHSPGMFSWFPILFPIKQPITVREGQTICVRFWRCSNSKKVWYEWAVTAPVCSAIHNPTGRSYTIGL
PRMT5-MEP50, sequence (Q9BQA1 whole entry partner): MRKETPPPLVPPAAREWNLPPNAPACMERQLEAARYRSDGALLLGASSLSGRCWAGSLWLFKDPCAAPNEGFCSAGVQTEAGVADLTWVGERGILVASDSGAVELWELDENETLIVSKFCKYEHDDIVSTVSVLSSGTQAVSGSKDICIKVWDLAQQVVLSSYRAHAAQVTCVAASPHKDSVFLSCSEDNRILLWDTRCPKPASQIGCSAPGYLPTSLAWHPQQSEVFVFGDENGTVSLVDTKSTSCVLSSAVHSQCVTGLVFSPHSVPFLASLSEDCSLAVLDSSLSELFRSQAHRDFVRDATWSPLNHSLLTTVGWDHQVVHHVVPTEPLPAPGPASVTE
METTL3/METTL14, sequence (Q86U44 whole entry, species assumed): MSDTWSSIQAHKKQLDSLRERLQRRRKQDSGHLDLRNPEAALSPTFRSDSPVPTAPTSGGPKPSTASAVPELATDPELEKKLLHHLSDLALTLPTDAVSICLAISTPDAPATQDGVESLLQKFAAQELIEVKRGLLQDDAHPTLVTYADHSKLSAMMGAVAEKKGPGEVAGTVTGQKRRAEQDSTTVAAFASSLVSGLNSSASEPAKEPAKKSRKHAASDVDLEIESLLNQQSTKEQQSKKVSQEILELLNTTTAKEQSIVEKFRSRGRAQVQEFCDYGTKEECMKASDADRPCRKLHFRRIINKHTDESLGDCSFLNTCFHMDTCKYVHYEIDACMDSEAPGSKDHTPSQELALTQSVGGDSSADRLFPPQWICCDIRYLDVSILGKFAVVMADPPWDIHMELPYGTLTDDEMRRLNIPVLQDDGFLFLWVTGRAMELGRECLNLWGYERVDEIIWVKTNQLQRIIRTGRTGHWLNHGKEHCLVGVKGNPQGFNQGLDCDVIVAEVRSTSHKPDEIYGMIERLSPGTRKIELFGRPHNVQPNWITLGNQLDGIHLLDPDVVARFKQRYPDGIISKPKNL
METTL3/METTL14, sequence (Q9HCE5 whole entry partner, species assumed): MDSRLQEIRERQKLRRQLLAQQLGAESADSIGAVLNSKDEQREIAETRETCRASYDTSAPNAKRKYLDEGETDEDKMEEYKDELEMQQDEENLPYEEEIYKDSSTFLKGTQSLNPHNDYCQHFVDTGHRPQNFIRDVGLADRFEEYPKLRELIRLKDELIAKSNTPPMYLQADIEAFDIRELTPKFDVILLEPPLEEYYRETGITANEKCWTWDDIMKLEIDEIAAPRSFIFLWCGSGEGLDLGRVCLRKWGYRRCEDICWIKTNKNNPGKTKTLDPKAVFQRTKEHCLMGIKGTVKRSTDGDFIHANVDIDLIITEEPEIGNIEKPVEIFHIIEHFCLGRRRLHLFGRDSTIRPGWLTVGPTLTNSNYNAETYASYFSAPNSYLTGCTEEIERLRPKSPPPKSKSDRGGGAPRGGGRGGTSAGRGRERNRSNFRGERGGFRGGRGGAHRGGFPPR

IC50 (FLT3) [nM] | IC50 (METTL3/METTL14) [nM] | IC50 (FLT3-ITD) [nM] | IC50 (PRMT5-MEP50) [nM] | Compound
≥ 1000 | 100 to 1000 | ≥ 1000 | 10 to 100 | Cn1ccc(-c2cn([C@@H]3O[C@H](C(=O)NC4CC5(CNC5)C4)[C@@H](O)[C@H]3O)c3ncnc(N)c23)n1 [Compound I-210]
≥ 1000 | 100 to 1000 | ≥ 1000 | 10 to 100 | Cn1ccc(-c2cn([C@@H]3O[C@H](C(=O)NC4CCN(CCO)CC4)[C@@H](O)[C@H]3O)c3ncnc(N)c23)n1 [Compound I-178]
≥ 1000 | 100 to 1000 | ≥ 1000 | ≥ 1000 | Cn1ccc(-c2cn([C@@H]3O[C@H](C(=O)N[C@H]4CC[C@@](C)(O)CC4)[C@@H](O)[C@H]3O)c3ncnc(N)c23)n1 [Compound I-209]
≥ 1000 | 100 to 1000 | ≥ 1000 | 100 to 1000 | C[C@@H]1C[C@@H](NC(=O)[C@H]2O[C@@H](n3cc(-c4ccn(C)n4)c4c(N)ncnc43)[C@H](O)[C@@H]2O)CCN1C [Compound I-233]
≥ 1000 | 100 to 1000 | ≥ 1000 | 100 to 1000 | CC1CC(NC(=O)[C@H]2O[C@@H](n3cc(-c4ccn(C)n4)c4c(N)ncnc43)[C@H](O)[C@@H]2O)CCN1C (stereo in doubt) [Compound I-231]
≥ 1000 | 100 to 1000 | ≥ 1000 | 100 to 1000 | CC1CC(NC(=O)[C@H]2O[C@@H](n3cc(-c4ccn(C)n4)c4c(N)ncnc43)[C@H](O)[C@@H]2O)CCN1 (stereo in doubt) [Compound I-212]
≥ 1000 | 100 to 1000 | ≥ 1000 | 10 to 100 | Cn1ccc(-c2cn([C@@H]3O[C@H](C(=O)N[C@H]4CCCNC4)[C@@H](O)[C@H]3O)c3ncnc(N)c23)n1 [Compound I-219]
≥ 1000 | 100 to 1000 | ≥ 1000 | 10 to 100 | CN1CC[C@@H](NC(=O)[C@H]2O[C@@H](n3cc(-c4ccn(C)n4)c4c(N)ncnc43)[C@H](O)[C@@H]2O)C1 [Compound I-184]
≥ 1000 | ≥ 1000 | ≥ 1000 | 100 to 1000 | Cn1ccc(-c2cn([C@@H]3O[C@H](C(=O)N4CCCC(NS(C)(=O)=O)C4)[C@@H](O)[C@H]3O)c3ncnc(N)c23)n1 (stereo in doubt) [Compound I-185]
≥ 1000 | ≥ 1000 | ≥ 1000 | ≥ 1000 | C[C@H]1C[C@H](NC(=O)[C@H]2O[C@@H](n3cc(-c4ccn(C)n4)c4c(N)ncnc43)[C@H](O)[C@@H]2O)CCN1 [Compound I-190]

Continued, compound first:

Compound | IC50 (FLT3) [nM] | IC50 (METTL3/METTL14) [nM] | IC50 (FLT3-ITD) [nM] | IC50 (PRMT5-MEP50) [nM]
CN1CCC(N(C(=O)[C@H]2O[C@@H](n3cc(-c4ccn(C)n4)c4c(N)ncnc43)[C@H](O)[C@@H]2O)C2CC2)CC1 [Compound I-149] | ≥ 1000 | 10 to 100 | ≥ 1000 | < 10
Cn1ccc(-c2cn([C@@H]3O[C@H](C(=O)NC[C@H]4CC[C@@H](O)CC4)[C@@H](O)[C@H]3O)c3ncnc(N)c23)n1 [Compound I-45, (2S,3S,4R,5R)-5-[4-amino-5-(1-methyl-1H-pyrazol-3-yl)-7H-pyrrolo[2,3-d]pyrimidin-7-yl]-3,4-dihydroxy-N-{[(1s,4s)-4-hydroxycyclohexyl]methyl}oxolane-2-carboxamide] | ≥ 1000 | ≥ 1000 | ≥ 1000 | ≥ 1000
CC(O)CN(C(=O)[C@H]1O[C@@H](n2cc(-c3ccn(C)n3)c3c(N)ncnc32)[C@H](O)[C@@H]1O)C1CCN(C)CC1 (stereo partly shown) [Compound I-147] | ≥ 1000 | ≥ 1000 | ≥ 1000 | < 10
CN1CCC(N(CCOCCO)C(=O)[C@H]2O[C@@H](n3cc(-c4ccn(C)n4)c4c(N)ncnc43)[C@H](O)[C@@H]2O)CC1 [Compound I-177] | ≥ 1000 | ≥ 1000 | ≥ 1000 | 10 to 100
CN1CCC[C@@H](NC(=O)[C@H]2O[C@@H](n3cc(-c4ccn(C)n4)c4c(N)ncnc43)[C@H](O)[C@@H]2O)C1 [Compound I-46, (2S,3S,4R,5R)-5-[4-amino-5-(1-methyl-1H-pyrazol-3-yl)-7H-pyrrolo[2,3-d]pyrimidin-7-yl]-3,4-dihydroxy-N-[(3R)-1-methylpiperidin-3-yl]oxolane-2-carboxamide] | ≥ 1000 | ≥ 1000 | ≥ 1000 | 10 to 100
COC(=O)[C@@H](N)CCNC(=O)[C@H]1O[C@@H](n2cc(-c3ccn(C)n3)c3c(N)ncnc32)[C@H](O)[C@@H]1O [Compound I-42, methyl (2S)-2-amino-4-{[(2S,3S,4R,5R)-5-[4-amino-5-(1-methyl-1H-pyrazol-3-yl)-7H-pyrrolo[2,3-d]pyrimidin-7-yl]-3,4-dihydroxyoxolan-2-yl]formamido}butanoate] | ≥ 1000 | ≥ 1000 | ≥ 1000 | 100 to 1000
CN1CCC(NC(=O)[C@H]2C[C@@H](n3cc(-c4ccn(C)n4)c4c(N)ncnc43)[C@H](O)[C@@H]2O)CC1 [Compound I-44, (1S,2R,3S,4R)-4-[4-amino-5-(1-methyl-1H-pyrazol-3-yl)-7H-pyrrolo[2,3-d]pyrimidin-7-yl]-2,3-dihydroxy-N-(1-methylpiperidin-4-yl)cyclopentane-1-carboxamide] | ≥ 1000 | 100 to 1000 | ≥ 1000 | 10 to 100
Cn1ccc(-c2cn([C@@H]3O[C@H](C(=O)N4CCC[C@@H](NS(C)(=O)=O)C4)[C@@H](O)[C@H]3O)c3ncnc(N)c23)n1 [Compound I-151] | ≥ 1000 | ≥ 1000 | ≥ 1000 | ≥ 1000
CN1[C@@H]2CC[C@H]1C[C@@H](NC(=O)[C@H]1O[C@@H](n3cc(-c4ccn(C)n4)c4c(N)ncnc43)[C@H](O)[C@@H]1O)C2 [Compound I-187] | ≥ 1000 | 100 to 1000 | ≥ 1000 | 10 to 100
